According to PubChem BioAssay (NCI):
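Tested at 5 concentrations; 48 h exposure; 96-well plates; endpoints linearly interpolated, else capped at highest concentration. At the GI50, growth is halved. TGI: total growth inhibition.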

Legend:
Experiment in all cases: inhibition of tumour cell growth, NCI panel, 48 h
MALME-3M melanoma = tested on: MALME-3M melanoma
EKVX NSCLC = tested on: EKVX NSCLC
LOX IMVI melanoma = tested on: LOX IMVI melanoma
SNB-75 CNS = tested on: SNB-75 CNS
COLO 205 colon = tested on: COLO 205 colon
SK-OV-3 ovarian = tested on: SK-OV-3 ovarian
SF-295 CNS = tested on: SF-295 CNS
NCI-H226 lung = tested on: NCI-H226 lung
786-0 renal = tested on: 786-0 renal
MCF7 breast = tested on: MCF7 breast
NCI-H460 lung = tested on: NCI-H460 lung
BT-549 breast = tested on: BT-549 breast
TK-10 renal = tested on: TK-10 renal
HOP-62 NSCLC = tested on: HOP-62 NSCLC
HOP-92 NSCLC = tested on: HOP-92 NSCLC
SF-268 CNS = tested on: SF-268 CNS
U251 CNS = tested on: U251 CNS
ACHN renal = tested on: ACHN renal
OVCAR-5 ovarian = tested on: OVCAR-5 ovarian
SW-620 colon = tested on: SW-620 colon
UACC-62 melanoma = tested on: UACC-62 melanoma
OVCAR-4 ovarian = tested on: OVCAR-4 ovarian
A549 NSCLC = tested on: A549 NSCLC
SR leukemia = tested on: SR leukemia
RXF 393 renal = tested on: RXF 393 renal
SN12C renal = tested on: SN12C renal
SNB-19 CNS = tested on: SNB-19 CNS
HS 578T breast = tested on: HS 578T breast

Cc1ccccc1NC(=O)c1cc2ccccc2cc1O
GI50 (MALME-3M melanoma): 1.98 µM
TGI (MALME-3M melanoma): 7.29 µM
GI50 (EKVX NSCLC): 2.36 µM
TGI (EKVX NSCLC): 91.8 µM
GI50 (LOX IMVI melanoma): 3.26 µM
TGI (LOX IMVI melanoma): > 100 µM
GI50 (SNB-75 CNS): 2.43 µM
TGI (SNB-75 CNS): 44.9 µM
GI50 (COLO 205 colon): 13.8 µM
TGI (COLO 205 colon): 28.6 µM
GI50 (SK-OV-3 ovarian): 2.64 µM
TGI (SK-OV-3 ovarian): 14.6 µM
GI50 (SF-295 CNS): 3.03 µM
TGI (SF-295 CNS): 24.2 µM
GI50 (NCI-H226 lung): 3.59 µM
TGI (NCI-H226 lung): > 100 µM
GI50 (786-0 renal): 3.41 µM
TGI (786-0 renal): > 100 µM
GI50 (MCF7 breast): 3.46 µM
TGI (MCF7 breast): 37.1 µM
GI50 (NCI-H460 lung): 2.77 µM
TGI (NCI-H460 lung): 7.29 µM
GI50 (BT-549 breast): 3.46 µM
TGI (BT-549 breast): 8.43 µM
GI50 (TK-10 renal): 4.2 µM
TGI (TK-10 renal): > 100 µM
GI50 (HOP-62 NSCLC): 2.47 µM
TGI (HOP-62 NSCLC): 7.88 µM
GI50 (HOP-92 NSCLC): 2.39 µM
TGI (HOP-92 NSCLC): 5.94 µM
GI50 (SF-268 CNS): 3.68 µM
TGI (SF-268 CNS): > 100 µM
GI50 (U251 CNS): 3.56 µM
TGI (U251 CNS): > 100 µM
GI50 (ACHN renal): 3.17 µM
TGI (ACHN renal): 10.4 µM
GI50 (OVCAR-5 ovarian): 5.88 µM
TGI (OVCAR-5 ovarian): 85.6 µM
GI50 (SW-620 colon): 3.96 µM
TGI (SW-620 colon): > 100 µM
GI50 (UACC-62 melanoma): 3.48 µM
TGI (UACC-62 melanoma): > 100 µM
GI50 (OVCAR-4 ovarian): 3.44 µM
TGI (OVCAR-4 ovarian): > 100 µM
GI50 (A549 NSCLC): 3.48 µM
TGI (A549 NSCLC): > 100 µM
GI50 (SR leukemia): 4.84 µM
TGI (SR leukemia): > 100 µM
GI50 (RXF 393 renal): 2.78 µM
TGI (RXF 393 renal): 7.23 µM
GI50 (SN12C renal): 2.62 µM
TGI (SN12C renal): 9.18 µM
GI50 (SNB-19 CNS): 4.6 µM
TGI (SNB-19 CNS): > 100 µM
GI50 (HS 578T breast): 3.12 µM
TGI (HS 578T breast): 8.38 µM
